Key:
BY-2 cells = experiment: GUS reporter activity of tetramer promoter constructs in transformed BY-2 cells with or without MeJA; assay type: cell-based, N. tabacum; details: tetramer upstream of minimal CaMV 35S -46 promoter
Protocol: Promoter constructs were produced by annealing phosphorylated upper- and lower-strand oligonucleotides to create various elements containing a SpeI restriction site at the 5′ end and an XbaI restriction site at the 3′ end. These were introduced into MS23-β-glucuronidase (“GUS”) between the SpeI and XbaI sites.
Ten colonies of transformed Agrobacteria (A. tumefaciens) containing the promoter construct were picked from a fresh plate and inoculated into 10 ml YEB, containing 50 mg/l rifampicin and 50 mg/l kanamycin, in a 50 ml flask. Cell cultures were incubated overnight at 28° C. with shaking, an overnight culture (1 ml) was taken. Cultures were diluted with YEB plus antibiotics so that the OD600 was approximately 0.3. Agrobacteria were grown at 28° C. with shaking until the OD600 was about 0.6. Cells were pelleted by centrifugation. Supernatants were removed and agrobacteria were resuspended in 0.5 ml MS. Approximately 3 ml of wild type BY-2 cells were introduced into Petri dishes. Approximately 100 μl of undiluted Agrobacteria or 1:10 or 1:100 diluted agrobacteria were mixed with the BY-2 cells to infect them. After 2 days, the BY-2 cells were washed with 30 ml MS medium and left for 30 min before the supernatant was removed. Approximately 2 ml aliquots of the transformed BY-2 cells were deposited onto MS plates containing vitamins, 50 mg/l kanamycin, and 500 mg/l cefotaxin. Transformed calli were visible after 3-5 weeks.
Single transformed calli were picked from selection plates and put on fresh MS+agar plates containing vitamins, 50 mg/l kanamycin, and 500 mg/l cefotaxin. Additionally, small amounts of calli were deposited into micro-wells (Corning 6 well culture cluster) with 6 ml MS medium containing vitamins, kanamycin, and cefotaxin. Samples in the micro-wells were grown at 28° C. for 4 days with shaking. Approximately 1 ml cells from the micro-wells were subcultured to new micro-wells with 5 ml fresh MS medium with vitamins, 50 mg/l kanamycin, and 500 mg/l cefotaxin. BY-2 cells were grown at 28° C. for 3 days with shaking. Then ten independent lines were chosen and 0.4 ml cells from each of the liquid cultures were subcultured to a 250 ml Erlenmeyer flask with 45 ml MS medium, vitamins, 50 mg/l kanamycin, and 500 mg/l cefotaxin. Cells were grown at 28° C. for 2 days with shaking. Then 10 ml cells from each flask were introduced into new 250 ml Erlenmeyer flasks with 40 ml MS medium containing vitamins without hormones (−2.4D) and antibiotics. The BY-2 cells were grown at 28° C. for 1 day with shaking. After 1 day BY-2 cells were treated with different amounts of methyl jasmonate (MeJA).
(§1) Histochemical staining for GUS activity and GUS activity determination was performed as described by Jefferson (1987).
An improved method for the analysis of promoter activity in BY-2 cells was developed. Transformed BY-2 calli were grown on selection plates and subsequently grown as liquid cultures in MS medium. For each individual construct ten independent lines were chosen. Approximately 0.5 ml cells from each of the liquid cultures were subcultured together in MS medium that contain vitamins, kanamycin, and cefotaxin. After 2 days, the cells were diluted in fresh MS medium containing vitamins without hormones (−2.4D) to reduce any stress response induced by cell density, and to deplete the medium of auxin. It has been shown previously that high auxin levels in the medium decreased the extent of MeJA-induced NtPMT:GUS expression (Xu and Timko, 2004). After 1 day BY-2 cells were treated with 100 μM MeJA. After 48 hours cell samples were taken, and were used to determine the GUS activity. For statistical analysis, each experiment was repeated four times and to avoid day to day variation in the GUS activities, and the data were normalized. These cell culture conditions ensured both a rapid and uniform response to MeJA.

tobacco plants = experiment: Histochemical GUS staining of transgenic tobacco plants after wounding or MeJA; assay type: in vivo, N. tabacum; details: tetramer constructs, GUS staining after 72 hours
Protocol: as §1
Ten colonies of the transformed Agrobacteria containing a promoter construct of interest were picked from a fresh plate and inoculated into 10 ml YEB, containing 50 mg/l rifampicin, and 50 mg/l kanamycin, in a 50 ml flask. Cell cultures were incubated overnight at 28° C. with shaking. Approximately 1 ml of overnight culture was taken. Cultures were diluted with 50 ml YEB plus antibiotics so that the OD600 was approximately 0.3. Agrobacteria were grown at 28° C. with shaking until the OD600 was approximately 0.6. The cells were then pelleted by centrifugation. Supernatants were removed and Agrobacteria were resuspended in 40 ml fresh YEB by pipetting with a 1 ml tip. Wild type tobacco leaves were cut into small pieces under sterile conditions and put in a 50 ml beaker. Agrobacteria solution was poured onto the tobacco leaves and the mixture was swirled together and left for 5 min for the Agrobacteria to infect the leaves. Infected leaves were put on MS plates with filter paper (to limit Agrobacteria grow). […] Plates were left for 2 days in the dark. After 2 days the tobacco pieces were transferred onto MS plates containing 1 mg/l 6 BA, 500 mg/l cefotaxin and 100 mg/l kanamycin. Samples were left in the light at 28° C. […]

## AT-rich element: SEQ ID NO:3; tetramer in front of minimal CaMV 35S -46 promoter (DNA TAATGAATTTTTAACTATTATATTATAT; expressed or natural sequence; listed as Nicotiana tabacum)
BY-2 cells
  promoter activity / promoter strength: only low level promoter activity
BY-2 cells; 100 μM MeJA, 48 hours
  response of GUS expression to MeJA treatment: characteristic reduction in promoter activity after MeJA addition

## G Box-like element: SEQ ID NO:2 (GCACGTTG); tetramer in front of minimal CaMV 35S -46 promoter (expressed or natural sequence; listed as Nicotiana tabacum)
BY-2 cells
  promoter activity / promoter strength: Low promoter activity
BY-2 cells; 100 μM MeJA, 48 hours
  response of GUS expression to MeJA treatment: characteristic reduction after MeJA exposure

## GCC-like box: SEQ ID NO:4; tetramer in front of minimal CaMV 35S -46 promoter (DNA TGCGCCCTCCACTCCTCGGTGTCCA; expressed or natural sequence; listed as Nicotiana tabacum)
BY-2 cells
  promoter activity / promoter strength: only low level promoter activity
BY-2 cells; 100 μM MeJA, 48 hours
  response of GUS expression to MeJA treatment: characteristic reduction in every line tested after MeJA addition

B1: GAG motif: SEQ ID NO:1 regulatory region of NtPMT1a promoter: G-box like, AT-rich and GCC-like box elements; tested as tetramer before CaMV 35S -46::GUS (nucleic acid, listed as Nicotiana tabacum)
DNA: CTAACCCTGCACGTTGTAATGAATTTTTAACTATTATATTATATCGAGTTGCGCCCTCCACTCCTCGGTGTCCA
modifications: expressed or natural sequence
notes: tested as tetramer before CaMV 35S -46::GUS
BY-2 cells
  promoter activity / promoter strength: much stronger than the G Box-GCC element
BY-2 cells; 100 μM MeJA, 48 hours
  MeJA inducibility of GUS expression (relative fold inducibility): approximately 35 fold
Tobacco plants; 25 μM MeJA
  MeJA-inducible expression in roots: showed inducibility by MeJA
Tobacco plants; wounding of roots or leaves
  wound-inducible expression in roots: can direct wound-inducible expression
